Test system: HEK293-STF3A cells
Test: STF3A assay (luciferase reporter)
Format: cell-based, Human
Conditions: Homo sapiens, 24 h, 1 day of treatment
Excerpt: HEK293-STF cell line was modified from Human embryonic kidney cell line HEK293 transfected with the STF reporter. HEK293-STF3A cell line was further modified from HEK293-STF cell line to express Wnt3A. This cell line was used to identify compounds that regulate either early or late signaling components of the Wnt pathway. These two cell lines were obtained from David Virshup's laboratory, Duke-NUS. L-Wnt3A (ATCC, #CRL-2647) cell line was used for providing Wnt3A conditioned media. The three cell lines were grown in DMEM with 10% FBS incubated in 37° C. with 5% CO2.
2×10^4 HEK293-STF3A cells in 75 μl culture media were seeded in each well of white 96 well plates (Greiner #655098) and incubated overnight at 37° C. 25 μl serially diluted compound was added to the cells to give final concentration of 50 μM to 1.5 nM. After 1 day of treatment, 100 μl of Steady-Glo Luciferase Assay reagent (#E2520, Promega) was added to each well and incubated for 10 minutes at room temperature. Luminescence was measured using Tecan Safire2 plate reader.

SMILES | IC50 [µM]
COc1ccccc1-c1ccc(NC(=O)CCC(=O)N2CCCn3nc(C)cc32)cc1 [Compound 61, N-(2′-methoxy-[1,1′-biphenyl]-4-yl)-4-(2-methyl-6,7-dihydropyrazolo[1,5-a]pyrimidin-4(5H)-yl)-4-oxobutanamide] | > 10
Cc1cc2n(n1)CCCN2C(=O)CCC(=O)Nc1ccc(-c2ccccc2)c(F)c1 [Compound 57, N-(2-fluorobiphenyl-4-yl)-4-(2-methyl-6,7-dihydropyrazolo[1,5-a]pyrimidin-4(5H)-yl)-4-oxobutanamide] | < 0.1
Cc1cc2n(n1)CCCN2C(=O)CCC(=O)Nc1ccc(-c2cccc(N(C)C)c2)cc1 [Compound 72, N-(3′-(dimethylamino)-[1,1′-biphenyl]-4-yl)-4-(2-methyl-6,7-dihydropyrazolo[1,5-a]pyrimidin-4(5H)-yl)-4-oxobutanamide] | > 10
Cc1cc2n(n1)CCCN2C(=O)CCC(=O)Nc1cc(-c2cccc(F)c2)no1 [Compound 8, N-(3-(3-fluorophenyl)isoxazol-5-yl)-4-(2-methyl-6,7-dihydropyrazolo[1,5-a]pyrimidin-4(5H)-yl)-4-oxobutanamide] | < 0.1
Cc1cc2n(n1)CCCN2C(=O)CCC(=O)Nc1ccc(-c2cnco2)cc1 [Compound 24, 4-(2-methyl-6,7-dihydropyrazolo[1,5-a]pyrimidin-4(5H)-yl)-N-(4-(oxazol-5-yl)phenyl)-4-oxobutanamide] | < 5
Cc1cc2n(n1)CCCN2C(=O)CCC(=O)Nc1cc(-c2cccc(Cl)c2)on1 [Compound 23, N-[5-(3-chlorophenyl)-1,2-oxazol-3-yl]-4-{2-methyl-5H,6H,7H-pyrazolo[1,5-a]pyrimidin-4-yl}-4-oxobutanamide] | < 1
Cc1cncc(-c2ccc(NC(=O)CCC(=O)N3CC(C)Cn4nc(C)cc43)nc2)n1 (centres unmarked) [Compound 157, 4-(2,6-dimethyl-6,7-dihydropyrazolo[1,5-a]pyrimidin-4(5H)-yl)-N-(5-(6-methylpyrazin-2-yl)pyridin-2-yl)-4-oxobutanamide] | < 0.1
Cc1cccc(-c2ccc(NC(=O)CCC(=O)N3CCCn4nc(C)cc43)cn2)c1 [Compound 85, 4-(2-methyl-6,7-dihydropyrazolo[1,5-a]pyrimidin-4(5H)-yl)-4-oxo-N-(6-(m-tolyl)pyridin-3-yl)butanamide] | < 0.1
O=C(CCC(=O)N1CCCn2nc(C(F)(F)F)cc21)Nc1cc(-c2cccc(Cl)c2)no1 [Compound 134, N-(3-(3-chlorophenyl)isoxazol-5-yl)-4-oxo-4-(2-(trifluoromethyl)-6,7-dihydropyrazolo[1,5-a]pyrimidin-4(5H)-yl)butanamide] | < 0.1
Cc1cc2n(n1)CC(C)CN2C(=O)CCC(=O)Nc1ccc(-c2cncc(F)c2)nn1 (centres unmarked) [Compound 167, 4-(2,6-dimethyl-6,7-dihydropyrazolo[1,5-a]pyrimidin-4(5H)-yl)-N-(6-(5-fluoropyridin-3-yl)pyridazin-3-yl)-4-oxobutanamide] | < 0.1
Cc1cc2n(n1)C[C@@H](C)CN2C(=O)CCC(=O)Nc1ccc(-c2cccnc2)cn1 [Compound 169, N-(3,3′-bipyridin-6-yl)-4-(2,6-dimethyl-6,7-dihydropyrazolo[1,5-a]pyrimidin-4(5H)-yl)-4-oxobutanamide] | < 0.1
Cc1cncc(-c2ccc(NC(=O)CCC(=O)N3CCCn4nc(C)cc43)nc2)n1 [Compound 128, 4-(2-methyl-6,7-dihydropyrazolo[1,5-a]pyrimidin-4(5H)-yl)-N-(5-(6-methylpyrazin-2-yl)pyridin-2-yl)-4-oxobutanamide] | < 0.1
Cc1cc2n(n1)CCCN2C(=O)CC(C)C(=O)Nc1ccc(-c2cccnc2)nc1 (centres unmarked) [Compound 145, N-([2,3′-bipyridin]-5-yl)-2-methyl-4-(2-methyl-6,7-dihydropyrazolo[1,5-a]pyrimidin-4(5H)-yl)-4-oxobutanamide] | < 0.1
COc1cc(-c2ccccc2)ccc1NC(=O)CCC(=O)N1CCCn2nc(C)cc21 [Compound 55, N-(3-methoxy-[1,1′-biphenyl]-4-yl)-4-(2-methyl-6,7-dihydropyrazolo[1,5-a]pyrimidin-4(5H)-yl)-4-oxobutanamide] | > 10
Cc1cc2n(n1)CCCN2C(=O)CCC(=O)Nc1cnc(-c2cccnc2)c(C)n1 [Compound 125, N-(6-methyl-5-(pyridin-3-yl)pyrazin-2-yl)-4-(2-methyl-6,7-dihydropyrazolo[1,5-a]pyrimidin-4(5H)-yl)-4-oxobutanamide] | > 10
Cc1cc2n(n1)CCCN2C(=O)CCC(=O)Nc1ccc(-c2ccccn2)cn1 [Compound 41, N-([2,3′-bipyridin]-6′-yl)-4-(2-methyl-6,7-dihydropyrazolo[1,5-a]pyrimidin-4(5H)-yl)-4-oxobutanamide] | < 0.1

SMILES | IC50 [µM]
Cc1cc2n(n1)CCCN2C(=O)CCC(=O)Nc1ccc(-c2cccc(C(=O)O)c2)cc1 [Compound 67, 4′-(4-(2-methyl-6,7-dihydropyrazolo[1,5-a]pyrimidin-4(5H)-yl)-4-oxobutanamido)-[1,1′-biphenyl]-3-carboxylic acid] | > 10
Cc1cc2n(n1)CCCN2C(=O)CCC(=O)Nc1ccc(-c2nccs2)cn1 [Compound 26, 4-(2-methyl-6,7-dihydropyrazolo[1,5-a]pyrimidin-4(5H)-yl)-4-oxo-N-(5-(thiazol-2-yl)pyridin-2-yl)butanamide] | < 0.1
Cc1cc2n(n1)CCCN2C(=O)CCC(=O)Nc1cc(-c2cccc(C(F)(F)F)c2)no1 [Compound 13, 4-{2-methyl-5H,6H,7H-pyrazolo[1,5-a]pyrimidin-4-yl}-4-oxo-N-{3-[3-(trifluoromethyl)phenyl]-1,2-oxazol-5-yl}butanamide] | > 10
Cc1cncc(-c2ncc(NC(=O)CCC(=O)N3CCCn4nc(C)cc43)cc2F)c1 [Compound 158, N-(3-fluoro-5′-methyl-[2,3′-bipyridin]-5-yl)-4-(2-methyl-6,7-dihydropyrazolo[1,5-a]pyrimidin-4(5H)-yl)-4-oxobutanamide] | < 0.1
Cc1cc2n(n1)CCCN2C(=O)CCC(=O)Nc1ccc(-c2ccccc2)nc1 [Compound 43, 4-(2-methyl-6,7-dihydropyrazolo[1,5-a]pyrimidin-4(5H)-yl)-4-oxo-N-(6-phenylpyridin-3-yl)butanamide] | < 0.1
Cc1cc2n(n1)CCCN2C(=O)CCC(=O)Nc1ccc(-c2cncc(C(F)(F)F)c2)cn1 [Compound 118, 4-(2-methyl-6,7-dihydropyrazolo[1,5-a]pyrimidin-4(5H)-yl)-4-oxo-N-(5′-(trifluoromethyl)-[3,3′-bipyridin]-6-yl)butanamide] | < 0.1
Cc1cc2n(n1)CCCN2C(=O)CC(C)C(=O)Nc1cc(-c2cccc(Cl)c2)no1 (centres unmarked) [Compound 159, N-(3-(3-chlorophenyl)isoxazol-5-yl)-2-methyl-4-(2-methyl-6,7-dihydropyrazolo[1,5-a]pyrimidin-4(5H)-yl)-4-oxobutanamide] | < 5
Cc1cc2n(n1)CCCN2C(=O)CCC(=O)Nc1ccc(-c2cncnc2)nc1 [Compound 154, 4-(2-methyl-6,7-dihydropyrazolo[1,5-a]pyrimidin-4(5H)-yl)-4-oxo-N-(6-(pyrimidin-5-yl)pyridin-3-yl)butanamide] | < 1
Cc1cc2n(n1)CCCN2C(=O)CCC(=O)Nc1ccc(-c2ccccc2)nn1 [Compound 45, 4-(2-methyl-6,7-dihydropyrazolo[1,5-a]pyrimidin-4(5H)-yl)-4-oxo-N-(6-phenylpyridazin-3-yl)butanamide] | < 0.1
Cc1cc2n(n1)CCCN2C(=O)CCC(=O)Nc1ccc(-c2ccnn2C)cc1 [Compound 29, N-(4-(1-methyl-1H-pyrazol-5-yl)phenyl)-4-(2-methyl-6,7-dihydropyrazolo[1,5-a]pyrimidin-4(5H)-yl)-4-oxobutanamide] | < 1
Cc1cc2n(n1)CC(C)CN2C(=O)CCC(=O)Nc1ccc(-c2cccnc2)nn1 (centres unmarked) [Compound 141, 4-(2,6-dimethyl-6,7-dihydropyrazolo[1,5-a]pyrimidin-4(5H)-yl)-4-oxo-N-(6-(pyridin-3-yl)pyridazin-3-yl)butanamide] | < 0.1
Cc1cc2n(n1)CCCN2C(=O)CCC(=O)Nc1ccc(-c2cncc(C(F)(F)F)c2)nn1 [Compound 105, 4-(2-methyl-6,7-dihydropyrazolo[1,5-a]pyrimidin-4(5H)-yl)-4-oxo-N-(6-(5-(trifluoromethyl)pyridin-3-yl)pyridazin-3-yl)butanamide] | < 0.1
Cc1cc2n(n1)CCCN2C(=O)CCC(=O)Nc1cnc(-c2cncc(F)c2)cn1 [Compound 122, N-(5-(5-fluoropyridin-3-yl)pyrazin-2-yl)-4-(2-methyl-6,7-dihydropyrazolo[1,5-a]pyrimidin-4(5H)-yl)-4-oxobutanamide] | < 0.1
Cc1cc2n(n1)CCCN2C(=O)CCC(=O)Nc1ccc(-c2cncc(Cl)c2)cn1 [Compound 114, N-(5′-chloro-[3,3′-bipyridin]-6-yl)-4-(2-methyl-6,7-dihydropyrazolo[1,5-a]pyrimidin-4(5H)-yl)-4-oxobutanamide] | < 0.1
Cc1cc2n(n1)CCCN2C(=O)CCC(=O)Nc1ccc(-c2cccnn2)cc1 [Compound 37, 4-{2-methyl-5H,6H,7H-pyrazolo[1,5-a]pyrimidin-4-yl}-4-oxo-N-[4-(pyridazin-3-yl)phenyl]butanamide] | < 1
Cc1ccnc(-c2ccc(NC(=O)CCC(=O)N3CCCn4nc(C)cc43)nc2)c1 [Compound 148, N-(4-methyl-2,3′-bipyridin-6′-yl)-4-(2-methyl-6,7-dihydropyrazolo[1,5-a]pyrimidin-4(5H)-yl)-4-oxobutanamide] | < 0.1

Source: patent US10189842B2 (Agency for Science, Technology and Research, priority 2013, dated 2019)
